11 molecules from ChEMBL document CHEMBL3991601, “The target landscape of clinical kinase drugs” (Science, 2017) can be followed below.

Active and inactive are the calls of the source. Cut-off read from the data, not from the text of the source, for most assays here: actives have a measured Kd and inactives only a lower limit.

Test [1] has as its target T1, Serine/threonine-protein kinase A-Raf (Homo sapiens, UniProt P10398).
T1 sequence (P10398 whole entry): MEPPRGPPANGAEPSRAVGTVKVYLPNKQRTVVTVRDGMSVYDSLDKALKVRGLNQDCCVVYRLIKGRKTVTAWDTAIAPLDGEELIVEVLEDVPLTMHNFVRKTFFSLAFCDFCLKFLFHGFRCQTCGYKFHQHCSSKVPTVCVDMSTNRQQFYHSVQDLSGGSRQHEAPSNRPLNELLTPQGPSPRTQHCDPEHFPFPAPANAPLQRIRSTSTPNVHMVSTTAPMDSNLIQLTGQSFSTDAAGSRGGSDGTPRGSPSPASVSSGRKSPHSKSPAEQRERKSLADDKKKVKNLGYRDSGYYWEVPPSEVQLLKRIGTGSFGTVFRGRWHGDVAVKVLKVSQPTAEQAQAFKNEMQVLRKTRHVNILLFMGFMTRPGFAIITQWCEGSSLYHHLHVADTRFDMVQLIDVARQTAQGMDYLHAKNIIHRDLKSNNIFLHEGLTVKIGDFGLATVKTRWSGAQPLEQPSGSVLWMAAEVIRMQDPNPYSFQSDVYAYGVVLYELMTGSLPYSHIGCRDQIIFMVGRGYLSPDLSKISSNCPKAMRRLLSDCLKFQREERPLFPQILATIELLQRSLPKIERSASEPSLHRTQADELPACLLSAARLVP

In the next test the target is LIM domain kinase 2 (Homo sapiens, UniProt P53671).
LIM domain kinase 2, sequence (P53671 whole entry, the tested form may be a part): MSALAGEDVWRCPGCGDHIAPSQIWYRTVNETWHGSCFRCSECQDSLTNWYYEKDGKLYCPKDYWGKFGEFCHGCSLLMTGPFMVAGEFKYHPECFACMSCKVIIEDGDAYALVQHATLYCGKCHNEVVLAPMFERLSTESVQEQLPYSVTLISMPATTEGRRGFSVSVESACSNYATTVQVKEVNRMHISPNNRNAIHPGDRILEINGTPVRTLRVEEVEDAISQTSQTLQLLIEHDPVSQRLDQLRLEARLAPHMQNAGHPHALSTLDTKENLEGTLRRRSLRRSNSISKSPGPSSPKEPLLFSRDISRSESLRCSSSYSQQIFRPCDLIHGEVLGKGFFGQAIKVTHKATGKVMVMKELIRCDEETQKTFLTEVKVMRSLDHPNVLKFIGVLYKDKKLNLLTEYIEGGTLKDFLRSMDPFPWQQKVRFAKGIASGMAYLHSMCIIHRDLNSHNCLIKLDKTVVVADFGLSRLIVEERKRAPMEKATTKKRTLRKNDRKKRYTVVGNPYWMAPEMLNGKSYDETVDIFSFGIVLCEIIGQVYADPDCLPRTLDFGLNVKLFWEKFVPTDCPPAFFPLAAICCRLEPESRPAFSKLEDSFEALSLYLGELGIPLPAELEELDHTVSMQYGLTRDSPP
Test [2] deals with Serine/threonine-protein kinase/endoribonuclease IRE1 (Homo sapiens, UniProt O75460).
Serine/threonine-protein kinase/endoribonuclease IRE1, sequence (O75460 whole entry): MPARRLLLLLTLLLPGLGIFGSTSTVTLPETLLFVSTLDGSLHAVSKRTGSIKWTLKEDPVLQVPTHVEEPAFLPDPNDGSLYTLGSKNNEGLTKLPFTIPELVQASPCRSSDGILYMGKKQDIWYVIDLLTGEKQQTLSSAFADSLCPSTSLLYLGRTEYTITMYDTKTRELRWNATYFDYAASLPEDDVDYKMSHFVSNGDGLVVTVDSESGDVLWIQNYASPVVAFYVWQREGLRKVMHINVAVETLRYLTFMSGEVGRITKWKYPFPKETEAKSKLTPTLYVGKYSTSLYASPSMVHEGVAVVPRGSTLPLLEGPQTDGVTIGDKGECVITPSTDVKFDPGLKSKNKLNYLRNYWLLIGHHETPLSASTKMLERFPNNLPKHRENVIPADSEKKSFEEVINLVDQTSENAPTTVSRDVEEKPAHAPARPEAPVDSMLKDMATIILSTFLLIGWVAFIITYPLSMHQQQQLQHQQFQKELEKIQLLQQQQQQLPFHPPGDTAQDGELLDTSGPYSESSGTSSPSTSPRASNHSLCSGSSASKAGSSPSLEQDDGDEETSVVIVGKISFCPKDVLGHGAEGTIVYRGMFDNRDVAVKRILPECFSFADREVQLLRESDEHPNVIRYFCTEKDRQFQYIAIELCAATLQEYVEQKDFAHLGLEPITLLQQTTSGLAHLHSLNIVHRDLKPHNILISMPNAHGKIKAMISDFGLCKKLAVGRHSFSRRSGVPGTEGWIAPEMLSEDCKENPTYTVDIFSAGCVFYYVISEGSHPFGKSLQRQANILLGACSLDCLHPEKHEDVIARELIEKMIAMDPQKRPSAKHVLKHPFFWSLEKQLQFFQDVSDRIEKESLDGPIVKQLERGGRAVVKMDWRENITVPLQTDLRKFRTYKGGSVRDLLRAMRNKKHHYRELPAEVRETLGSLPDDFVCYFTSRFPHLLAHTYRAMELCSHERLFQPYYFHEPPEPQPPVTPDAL
For test [3], the target named is Serine/threonine-protein kinase PAK 4 (Homo sapiens, UniProt O96013).
Serine/threonine-protein kinase PAK 4, sequence (O96013 whole entry): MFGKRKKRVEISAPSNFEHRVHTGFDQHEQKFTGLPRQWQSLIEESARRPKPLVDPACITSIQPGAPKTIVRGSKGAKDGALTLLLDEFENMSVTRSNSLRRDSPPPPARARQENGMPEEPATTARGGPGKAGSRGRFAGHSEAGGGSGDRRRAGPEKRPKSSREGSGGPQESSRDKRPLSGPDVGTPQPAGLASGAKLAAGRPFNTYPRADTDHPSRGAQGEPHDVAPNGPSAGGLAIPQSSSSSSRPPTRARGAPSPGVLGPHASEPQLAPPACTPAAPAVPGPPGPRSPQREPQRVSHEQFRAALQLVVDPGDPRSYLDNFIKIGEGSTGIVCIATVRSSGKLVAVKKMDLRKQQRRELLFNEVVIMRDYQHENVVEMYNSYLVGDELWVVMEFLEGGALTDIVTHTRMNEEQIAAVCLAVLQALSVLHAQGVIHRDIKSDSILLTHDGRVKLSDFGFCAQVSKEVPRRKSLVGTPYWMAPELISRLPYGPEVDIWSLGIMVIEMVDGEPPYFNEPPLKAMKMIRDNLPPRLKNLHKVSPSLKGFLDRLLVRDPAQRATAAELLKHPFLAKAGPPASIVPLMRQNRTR
Test [4] concerns the target Fibroblast growth factor receptor 1 (Homo sapiens, UniProt P11362).
A further test concerns the target T2, Heme oxygenase 2 (Homo sapiens, UniProt P30519).
T2 sequence (P30519 whole entry): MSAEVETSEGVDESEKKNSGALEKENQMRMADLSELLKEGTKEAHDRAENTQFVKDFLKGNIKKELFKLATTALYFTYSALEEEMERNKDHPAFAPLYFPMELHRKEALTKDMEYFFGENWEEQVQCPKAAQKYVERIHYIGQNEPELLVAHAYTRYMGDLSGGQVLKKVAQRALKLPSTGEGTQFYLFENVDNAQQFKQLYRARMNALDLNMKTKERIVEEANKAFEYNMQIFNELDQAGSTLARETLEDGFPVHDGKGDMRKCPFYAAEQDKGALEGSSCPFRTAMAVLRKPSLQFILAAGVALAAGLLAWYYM

Test [5] deals with Chromodomain-helicase-DNA-binding protein 4 (Homo sapiens, UniProt Q14839).
Chromodomain-helicase-DNA-binding protein 4, sequence (Q14839 whole entry): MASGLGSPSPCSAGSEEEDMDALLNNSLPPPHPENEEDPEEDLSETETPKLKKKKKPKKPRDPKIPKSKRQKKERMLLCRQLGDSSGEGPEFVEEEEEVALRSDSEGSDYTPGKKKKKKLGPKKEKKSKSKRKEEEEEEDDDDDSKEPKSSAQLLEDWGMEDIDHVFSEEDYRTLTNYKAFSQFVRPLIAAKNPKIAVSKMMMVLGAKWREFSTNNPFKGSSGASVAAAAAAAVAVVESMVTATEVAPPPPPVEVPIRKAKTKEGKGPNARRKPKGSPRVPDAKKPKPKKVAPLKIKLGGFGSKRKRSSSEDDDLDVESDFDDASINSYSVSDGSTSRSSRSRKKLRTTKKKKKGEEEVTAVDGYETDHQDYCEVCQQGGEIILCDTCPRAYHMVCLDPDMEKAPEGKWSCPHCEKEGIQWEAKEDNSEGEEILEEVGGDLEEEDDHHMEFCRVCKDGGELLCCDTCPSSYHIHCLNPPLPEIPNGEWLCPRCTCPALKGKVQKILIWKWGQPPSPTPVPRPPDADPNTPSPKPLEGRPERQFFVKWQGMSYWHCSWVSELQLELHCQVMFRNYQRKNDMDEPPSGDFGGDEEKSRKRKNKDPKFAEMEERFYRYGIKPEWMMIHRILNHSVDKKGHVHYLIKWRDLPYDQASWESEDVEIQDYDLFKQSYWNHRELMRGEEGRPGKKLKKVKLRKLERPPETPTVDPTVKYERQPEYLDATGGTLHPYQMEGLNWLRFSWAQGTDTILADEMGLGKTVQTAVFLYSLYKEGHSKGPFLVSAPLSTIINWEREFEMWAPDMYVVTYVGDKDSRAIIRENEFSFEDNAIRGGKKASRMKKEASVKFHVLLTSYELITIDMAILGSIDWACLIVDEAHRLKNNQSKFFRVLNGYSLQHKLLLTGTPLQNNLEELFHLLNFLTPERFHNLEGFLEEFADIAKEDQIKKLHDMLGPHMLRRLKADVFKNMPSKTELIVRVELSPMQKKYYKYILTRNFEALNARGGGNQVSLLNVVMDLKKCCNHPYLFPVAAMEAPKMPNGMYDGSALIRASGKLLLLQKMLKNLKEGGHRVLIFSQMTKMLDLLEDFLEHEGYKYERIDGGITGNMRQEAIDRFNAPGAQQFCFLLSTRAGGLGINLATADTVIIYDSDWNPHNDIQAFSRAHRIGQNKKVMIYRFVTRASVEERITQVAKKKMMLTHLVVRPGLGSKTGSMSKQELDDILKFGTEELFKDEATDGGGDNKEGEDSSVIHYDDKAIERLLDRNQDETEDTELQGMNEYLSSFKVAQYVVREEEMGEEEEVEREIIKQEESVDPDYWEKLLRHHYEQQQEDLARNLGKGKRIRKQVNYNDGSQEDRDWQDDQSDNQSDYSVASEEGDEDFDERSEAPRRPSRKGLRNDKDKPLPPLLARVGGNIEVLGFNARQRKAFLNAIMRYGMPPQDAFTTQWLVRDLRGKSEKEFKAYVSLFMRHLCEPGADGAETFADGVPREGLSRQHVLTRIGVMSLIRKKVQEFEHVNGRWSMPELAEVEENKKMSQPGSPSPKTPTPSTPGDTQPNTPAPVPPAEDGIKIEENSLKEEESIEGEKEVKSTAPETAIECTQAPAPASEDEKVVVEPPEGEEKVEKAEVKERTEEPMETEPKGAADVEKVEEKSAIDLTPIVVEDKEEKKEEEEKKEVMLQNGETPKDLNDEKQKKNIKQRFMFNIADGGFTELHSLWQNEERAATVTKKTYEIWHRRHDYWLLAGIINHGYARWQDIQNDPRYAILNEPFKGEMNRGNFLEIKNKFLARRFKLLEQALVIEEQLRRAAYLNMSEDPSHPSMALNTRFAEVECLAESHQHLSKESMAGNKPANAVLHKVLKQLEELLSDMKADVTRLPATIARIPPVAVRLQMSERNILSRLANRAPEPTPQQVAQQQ
Test [6] deals with T3, Bone morphogenetic protein receptor type-2 (Homo sapiens, UniProt Q13873).
T3 sequence (Q13873 whole entry): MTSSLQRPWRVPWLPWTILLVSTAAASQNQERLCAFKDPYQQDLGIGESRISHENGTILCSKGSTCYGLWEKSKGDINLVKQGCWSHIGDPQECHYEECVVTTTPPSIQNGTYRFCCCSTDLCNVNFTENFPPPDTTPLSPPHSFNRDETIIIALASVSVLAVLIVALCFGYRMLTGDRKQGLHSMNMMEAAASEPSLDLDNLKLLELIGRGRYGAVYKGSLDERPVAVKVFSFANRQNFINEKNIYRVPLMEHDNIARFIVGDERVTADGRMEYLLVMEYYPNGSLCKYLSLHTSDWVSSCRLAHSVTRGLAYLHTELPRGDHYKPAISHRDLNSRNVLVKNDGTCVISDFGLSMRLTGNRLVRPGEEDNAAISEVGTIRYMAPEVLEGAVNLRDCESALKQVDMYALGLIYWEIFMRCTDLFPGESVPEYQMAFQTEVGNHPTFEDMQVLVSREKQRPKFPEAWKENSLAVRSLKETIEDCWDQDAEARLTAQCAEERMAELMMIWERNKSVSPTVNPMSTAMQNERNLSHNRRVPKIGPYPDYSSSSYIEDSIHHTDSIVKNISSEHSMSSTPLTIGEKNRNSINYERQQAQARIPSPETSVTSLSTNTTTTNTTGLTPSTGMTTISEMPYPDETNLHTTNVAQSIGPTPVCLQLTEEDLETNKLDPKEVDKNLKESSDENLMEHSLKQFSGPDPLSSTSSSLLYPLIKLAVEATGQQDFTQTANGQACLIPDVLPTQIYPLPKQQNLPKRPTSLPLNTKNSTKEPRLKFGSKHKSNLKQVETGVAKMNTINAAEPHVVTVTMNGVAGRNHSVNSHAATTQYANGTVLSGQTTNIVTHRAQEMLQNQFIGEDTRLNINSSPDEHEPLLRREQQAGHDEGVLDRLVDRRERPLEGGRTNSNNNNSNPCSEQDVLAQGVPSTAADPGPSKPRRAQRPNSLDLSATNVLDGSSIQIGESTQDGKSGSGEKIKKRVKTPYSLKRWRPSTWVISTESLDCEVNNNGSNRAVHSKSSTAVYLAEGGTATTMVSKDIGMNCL

Test [7] has as its target T4, Serine/threonine-protein kinase ULK3 (Homo sapiens, UniProt Q6PHR2).
T4 sequence (Q6PHR2 whole entry): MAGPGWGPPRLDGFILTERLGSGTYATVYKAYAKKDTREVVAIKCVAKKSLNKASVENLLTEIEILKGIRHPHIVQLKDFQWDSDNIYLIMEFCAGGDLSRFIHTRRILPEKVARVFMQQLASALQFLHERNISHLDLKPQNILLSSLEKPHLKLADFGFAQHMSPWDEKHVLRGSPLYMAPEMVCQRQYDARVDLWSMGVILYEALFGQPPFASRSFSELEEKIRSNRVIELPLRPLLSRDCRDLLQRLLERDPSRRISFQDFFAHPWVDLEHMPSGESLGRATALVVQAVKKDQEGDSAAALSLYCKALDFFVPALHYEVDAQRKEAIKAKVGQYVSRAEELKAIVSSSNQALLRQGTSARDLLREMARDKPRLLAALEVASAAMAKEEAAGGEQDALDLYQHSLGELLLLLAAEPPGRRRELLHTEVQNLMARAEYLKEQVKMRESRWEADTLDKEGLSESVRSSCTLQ

Test [8] concerns the target Proto-oncogene tyrosine-protein kinase Src (Homo sapiens, UniProt P12931).
Note: in the data inactive means no Kd found up to 30 µM.

Proto-oncogene tyrosine-protein kinase Src, sequence (P12931 2-536 limits assumed): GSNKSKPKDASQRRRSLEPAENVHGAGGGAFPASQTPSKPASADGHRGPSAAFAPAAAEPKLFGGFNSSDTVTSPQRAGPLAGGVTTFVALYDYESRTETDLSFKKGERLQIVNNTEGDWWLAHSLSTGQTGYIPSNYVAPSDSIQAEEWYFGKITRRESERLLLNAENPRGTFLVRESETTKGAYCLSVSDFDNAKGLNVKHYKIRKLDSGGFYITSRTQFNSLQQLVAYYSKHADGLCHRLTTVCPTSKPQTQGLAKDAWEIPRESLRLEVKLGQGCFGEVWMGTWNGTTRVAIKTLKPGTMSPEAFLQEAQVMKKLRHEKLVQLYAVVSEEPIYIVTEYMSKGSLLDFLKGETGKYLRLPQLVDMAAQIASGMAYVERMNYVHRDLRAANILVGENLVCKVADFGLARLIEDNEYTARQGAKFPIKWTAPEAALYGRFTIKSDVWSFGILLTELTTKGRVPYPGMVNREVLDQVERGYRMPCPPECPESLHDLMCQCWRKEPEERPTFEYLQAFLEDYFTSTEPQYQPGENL

The term Kd denotes the free concentration of one partner at which half of the binding sites on the other are occupied at equilibrium, for simple one-to-one binding. For `COc1cc(OC)c(/C=C/S(=O)(=O)Cc2ccc(OC)c(NCC(=O)O)c2)c(OC)c1` [RIGOSERTIB], the Kd (in [1]; on LIM domain kinase 2; in test [2]; in [3]; in test [4]; on Heme oxygenase 2) was > 30 µM (inactive) each time. Also, the Kd in test [5], in [6], in test [7] and in [8] was > 30 µM (inactive) each time.

Take `CC[C@H](Nc1ncnc2[nH]cnc12)c1nc2cccc(F)c2c(=O)n1-c1ccccc1` [IDELALISIB]: the Kd (in [1]; at LIM domain kinase 2; in test [2]; in [3]; in test [4]; at Heme oxygenase 2) was > 30 µM (inactive) each time. In addition, the Kd in test [5], in test [6], in test [7] and in test [8] was > 30 µM (inactive) in each case.

For the molecule `C[C@@H](c1ccc2nccn2c1)n1nnc2ncc(-c3cnn(C)c3)nc21` [SAVOLITINIB], the Kd (in [1]; on LIM domain kinase 2; in [2]; in test [3]; in [4]; on Heme oxygenase 2) was > 30 µM (inactive) each time. Moreover, the Kd in [6], in [7] and in test [8] was > 30 µM (inactive) in each case.

With `CN1N=C(N)c2cn([C@@H]3O[C@H](COP(=O)(O)O)[C@@H](O)[C@H]3O)c3ncnc1c23` [TRICIRIBINE PHOSPHATE], the Kd (at LIM domain kinase 2; in [2]; in [3]; in [4]; at Heme oxygenase 2; in test [5]) was > 30 µM (inactive) in each case. Besides, the Kd in test [6], in test [7] and in test [8] was > 30 µM (inactive) in each case.

As to `CNC(=O)CN1CCC(Oc2cc3c(Nc4cccc(Cl)c4F)ncnc3cc2OC)CC1` [SAPITINIB], the Kd (in test [1]; at LIM domain kinase 2; in [2]; in [3]; in [4]; at Heme oxygenase 2) was > 30 µM (inactive) each time. Further, the Kd in test [5], in test [6], in [7] and in test [8] was > 30 µM (inactive) throughout.

Take `O=C(c1ccc(F)c(F)c1Nc1ccc(I)cc1F)N1CC(O)([C@@H]2CCCCN2)C1` [COBIMETINIB]: the Kd (in test [1]; on LIM domain kinase 2; in [2]; in test [3]; in [4]; at Heme oxygenase 2) was > 30 µM (inactive) each time. Also, the Kd in test [5], in [6], in [7] and in test [8] was > 30 µM (inactive) throughout.

As to `Cc1ccc(S(=O)(=O)Nc2nc3ccccc3nc2Nc2ccc3nsnc3c2)cc1`, the Kd (in [1]; on LIM domain kinase 2; in test [2]; in test [3]; in test [4]; at Heme oxygenase 2) was > 30 µM (inactive) in each case. Besides, the Kd in test [5], in test [6], in test [7] and in test [8] was > 30 µM (inactive) throughout.

Turning to `CCS(=O)(=O)N1CC(CC#N)(n2cc(-c3ncnc4[nH]ccc34)cn2)C1` [BARICITINIB], the Kd (in [1]; on LIM domain kinase 2; in [2]; in [3]; in [4]; on Heme oxygenase 2) was > 30 µM (inactive) throughout. In addition, the Kd in test [5], in test [6], in test [7] and in test [8] was > 30 µM (inactive) in each case.

In the case of `Cc1ccc(NC(=O)c2ccc(CN3CC[C@H](N(C)C)C3)c(C(F)(F)F)c2)cc1Nc1nccc(-c2cncnc2)n1` [BAFETINIB], the Kd in test [1] is 2.89 µM (active); at LIM domain kinase 2, > 30 µM (inactive); in test [2] it was > 30 µM (inactive); in test [3] it was > 30 µM (inactive); in test [4], > 30 µM (inactive); at Heme oxygenase 2, > 30 µM (inactive). Further, the Kd in [5], in test [6], in test [7] and in test [8] was > 30 µM (inactive) in each case.

As for `CNC(=O)c1ccc(-c2cnc3ncc(Cc4ccc5ncccc5c4)n3n2)cc1F` [CAPMATINIB], the Kd (in [1]; on LIM domain kinase 2; in [2]; in test [3]; in test [4]; on Heme oxygenase 2) was > 30 µM (inactive) throughout. Besides, the Kd in test [6], in test [7] and in [8] was > 30 µM (inactive) in each case.

Turning to `CNC(=O)c1ccc(C)c(-n2c(C)cc(OCc3ccc(F)cc3F)c(Br)c2=O)c1` [PH-797804], the Kd (in [1]; at LIM domain kinase 2; in test [2]; in test [3]; in test [4]; at Heme oxygenase 2) was > 30 µM (inactive) in each case. Also, the Kd in test [6], in [7] and in test [8] was > 30 µM (inactive) in each case.
